# From patent US20250109140A1, “5-[5-(PIPERIDIN-4-YL)THIENO[3,2-C]PYRAZOL-2-YL]INDAZOLE DERIVATIVES AND RELATED COMPOUNDS AS MODULATORS FOR SPLICING NUCLEIC ACIDS AND FOR THE TREATMENT OF PROLIFERATIVE DISEASES” (REMIX THERAPUTICS INC., priority 2022, published 2025)
# Read-outs that look alike come from different tables or passages of the source.
# Experiments:
# [1] = system: HiBiT-tagged MYB protein; assay: HiBiT protein abundance assay, MYB (K562 HiBiT knock-in cells); format: cell-based, human; conditions: 24 hours treatment
# Summary of the method: (§1)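 Luminescence from the Nano-Glo HiBiT lytic reagent measured tagged protein remaining in knock-in K562 cells after 24 h compound exposure (top dose 10 µM final, 3-fold, 10 points). Responses normalized between parental K562 and DMSO-treated lines were fit by four-parameter logistic to interpolate the 50% concentration.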
# [2] = system: Target C; assay: HiBiT protein abundance assay, Target C (K562 HiBiT knock-in cells); format: cell-based, human; conditions: 24 hours treatment
# Summary of the method: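 The readout was Nano-Glo HiBiT lytic luminescence after 24 h compound exposure at 37 °C, in 10000 K562 knock-in cells/well. Compounds ran as 10-point, 3-fold series, top final […], ≤0.25% DMSO. Responses were scaled between parental K562 and DMSO-treated controls, and IC50 was interpolated at 50% from four-parameter logistic curves.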
# [3] = system: HiBiT-tagged HTT protein; assay: HiBiT protein abundance assay, HTT (K562 HiBiT knock-in cells); format: cell-based, human; conditions: 24 hours treatment
# Summary of the method: as §1
# [4] = system: HTT mRNA; assay: Splicing RT-qPCR assay, HTT canonical (CJ) and alternative (AJ) junction mRNA; format: cell-based; conditions: Homo sapiens; for EC50: AC50 = 50% response in AJ mRNA increase
# Summary of the method: (§2)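 Readout is RT-qPCR of CJ and AJ mRNA in lysates from A673 or K562 cells given an 11-point titration (top dose 10 uM final, DMSO at most 0.25%) for 24 hours. Data were normalized to GAPDH, GUSB or PPIA, then to DMSO.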
# [5] = system: MYB mRNA; assay: Splicing RT-qPCR assay, MYB canonical (CJ) and alternative (AJ) junction mRNA; format: cell-based; conditions: Homo sapiens; for EC50: AC50 = 50% response in AJ mRNA increase
# Summary of the method: as §2
# [6] = system: SMN2 mRNA; assay: Splicing RT-qPCR gene panel, SMN2 canonical junction (CJ) mRNA; format: cell-based; conditions: Homo sapiens; Table 8; larger gene panel, decrease in CJ mRNA levels
# Summary of the method: as §2
# [7] = system: K562 (human chronic myelogenous leukemia) cells; assay: Cell viability, Cell Titer Glo 2.0 assay, K562 cells; format: cell-based; conditions: 72 hours
# Summary of the method: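 Luminescent Cell Titer Glo 2.0 readout after 72 h exposure (37° C, 5% CO2), medium-only wells as blank. Cells plated 500/well in IMDM with 10% FBS; test compounds diluted from DMSO series 1:100 into medium, 0.1% DMSO final.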
# [8] = system: Target C mRNA; assay: Splicing RT-qPCR gene panel, Target C canonical junction (CJ) mRNA; format: cell-based; conditions: Homo sapiens; Table 8; larger gene panel, decrease in CJ mRNA levels
# Summary of the method: as §2
# [9] = Table 7, RT-qPCR, A673 or K562 cells, 24 hours treatment
# [10] = Table 7, IC50 = 50% response in CJ mRNA decrease, RT-qPCR, A673 or K562 cells, 24 hours treatment, read-out: HTT CJ
# [11] = Table 8, larger gene panel, decrease in CJ mRNA levels, read-out: HTT CJ IC50
# [12] = Table 7, IC50 = 50% response in CJ mRNA decrease, RT-qPCR, A673 or K562 cells, 24 hours treatment, read-out: MYB CJ
# [13] = Table 8, larger gene panel, decrease in CJ mRNA levels, read-out: MYB CJ IC50
Compound,IC50 [1] [nM],IC50 [2] [nM],IC50 [3] [nM],"EC50 [4, 9] [nM]","IC50 [4, 10] [nM]","IC50 [4, 11] [nM]","EC50 [5, 9] [nM]","IC50 [5, 12] [nM]","IC50 [5, 13] [nM]",IC50 [6] [nM],IC50 [7] [nM],IC50 [8] [nM]
"Cn1cc2cc(-n3cc4cc(C5CCNCC5)sc4n3)cc(F)c2n1 [Compound 104, 7-fluoro-2-methyl-5-[5-(piperidin-4-yl)thieno[2,3-c]pyrazol-2-yl]indazole]",100 to 1000,100 to 1000,< 100,100 to 1000,< 100,100 to 1000,100 to 1000,100 to 1000,100 to 1000,< 100,100 to 1000,100 to 1000
Cc1cn2nc(-n3cc4sc(C5CCNCC5)cc4n3)nc2c(C)n1 [Compound 170],1000 to 10000,1000 to 10000,1000 to 10000,1000 to 10000,1000 to 10000,1000 to 10000,1000 to 10000,1000 to 10000,1000 to 10000,1000 to 10000,1000 to 10000,1000 to 10000
Cn1cc2cc(-c3cc4cn(C5CCNCC5)nc4s3)ncc2n1 [Compound 214],1000 to 10000,1000 to 10000,1000 to 10000,100 to 1000,1000 to 10000,100 to 1000,1000 to 10000,1000 to 10000,1000 to 10000,100 to 1000,1000 to 10000,1000 to 10000
"CN1CCC(n2cc3cc(-c4cc(F)c5nn(C)cc5c4)sc3n2)CC1 [Compound 150, 7-fluoro-2-methyl-5-[2-(1-methylpiperidin-4-yl)thieno[2,3-c]pyrazol-5-yl]indazole]",100 to 1000,100 to 1000,< 100,100 to 1000,100 to 1000,100 to 1000,100 to 1000,100 to 1000,100 to 1000,< 100,100 to 1000,100 to 1000
Cn1cc2cc(-c3cc4cn([C@H]5CCNC[C@H]5F)nc4s3)cc(F)c2n1 [Compound 182],100 to 1000,100 to 1000,< 100,100 to 1000,< 100,100 to 1000,1000 to 10000,100 to 1000,1000 to 10000,< 100,100 to 1000,100 to 1000
Cc1nc2c(F)cc(-n3cc4sc(C5CCNCC5)cc4n3)cc2s1 [Compound 168],1000 to 10000,1000 to 10000,1000 to 10000,1000 to 10000,1000 to 10000,1000 to 10000,1000 to 10000,> 10000,1000 to 10000,100 to 1000,1000 to 10000,> 10000
Cc1cn2cc(-c3cc4cn(C5CCNCC5)nc4s3)cc(Cl)c2n1 [Compound 226],100 to 1000,< 100,< 100,< 100,< 100,< 100,100 to 1000,100 to 1000,100 to 1000,< 100,100 to 1000,100 to 1000
"Cn1cc2cc(-c3nc4cn(C5CCNCC5)nc4s3)cc(F)c2n1 [Compound 1100, 7-fluoro-2-methyl-5-[2-(piperidin-4-yl)pyrazolo[4,3-d][1,3]thiazol-5-yl]indazole]",100 to 1000,100 to 1000,< 100,100 to 1000,100 to 1000,100 to 1000,100 to 1000,100 to 1000,100 to 1000,< 100,1000 to 10000,100 to 1000
